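Method: 48-hour compound exposure of cells in 96-well plates, five concentrations, linear interpolation of endpoints. The concentration for full growth arrest is given as TGI.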
What was measured:
Assay in all cases: NCI tumour cell line growth inhibition, 48 h
RXF-631 renal = test system: RXF-631 renal
M19-MEL melanoma = test system: M19-MEL melanoma
ACHN renal = test system: ACHN renal
MALME-3M melanoma = test system: MALME-3M melanoma
DU-145 prostate = test system: DU-145 prostate
SW-620 colon = test system: SW-620 colon
MCF7 breast = test system: MCF7 breast
SF-268 CNS = test system: SF-268 CNS
SK-MEL-28 melanoma = test system: SK-MEL-28 melanoma
U251 CNS = test system: U251 CNS
HCT-116 colon = test system: HCT-116 colon
SF-539 CNS = test system: SF-539 CNS
XF 498 CNS = test system: XF 498 CNS
UACC-62 melanoma = test system: UACC-62 melanoma
LXFL 529 NSCLC = test system: LXFL 529 NSCLC
DMS 273 small cell lung = test system: DMS 273 small cell lung
SNB-19 CNS = test system: SNB-19 CNS
HCT-15 colon = test system: HCT-15 colon
MDA-MB-435 = test system: MDA-MB-435
HS 578T breast = test system: HS 578T breast
NCI-H226 lung = test system: NCI-H226 lung
HOP-62 NSCLC = test system: HOP-62 NSCLC
SR leukemia = test system: SR leukemia
UACC-257 melanoma = test system: UACC-257 melanoma
BT-549 breast = test system: BT-549 breast
UO-31 renal = test system: UO-31 renal
COLO 205 colon = test system: COLO 205 colon
A498 renal = test system: A498 renal
SF-295 CNS = test system: SF-295 CNS
RPMI-8226 leukemia = test system: RPMI-8226 leukemia
OVCAR-8 ovarian = test system: OVCAR-8 ovarian
M14 melanoma = test system: M14 melanoma
HL-60(TB) leukemia = test system: HL-60(TB) leukemia
T-47D breast = test system: T-47D breast
HCC-2998 colon = test system: HCC-2998 colon
DLD-1 colon = test system: DLD-1 colon
HOP-92 NSCLC = test system: HOP-92 NSCLC
OVCAR-4 ovarian = test system: OVCAR-4 ovarian
SK-OV-3 ovarian = test system: SK-OV-3 ovarian
A549 NSCLC = test system: A549 NSCLC
NCI-H23 lung = test system: NCI-H23 lung
SN12C renal = test system: SN12C renal
CAKI-1 renal = test system: CAKI-1 renal
NCI/ADR-RES ovarian = test system: NCI/ADR-RES ovarian
MDA-MB-231 breast = test system: MDA-MB-231 breast
EKVX NSCLC = test system: EKVX NSCLC
RXF 393 renal = test system: RXF 393 renal
KM12 colon = test system: KM12 colon
KM20L2 colon = test system: KM20L2 colon
SNB-75 CNS = test system: SNB-75 CNS
HT29 colon = test system: HT29 colon
DMS 114 small cell lung = test system: DMS 114 small cell lung
SK-MEL-2 melanoma = test system: SK-MEL-2 melanoma
SK-MEL-5 melanoma = test system: SK-MEL-5 melanoma
NCI-H460 lung = test system: NCI-H460 lung
MOLT-4 leukemia = test system: MOLT-4 leukemia
OVCAR-5 ovarian = test system: OVCAR-5 ovarian
MDA-N = test system: MDA-N
NCI-H522 lung = test system: NCI-H522 lung
IGROV1 ovarian = test system: IGROV1 ovarian
786-0 renal = test system: 786-0 renal
SNB-78 CNS = test system: SNB-78 CNS
CCRF-CEM leukemia = test system: CCRF-CEM leukemia
TK-10 renal = test system: TK-10 renal
HOP-18 NSCLC = test system: HOP-18 NSCLC
PC-3 prostate = test system: PC-3 prostate
K-562 leukemia = test system: K-562 leukemia
OVCAR-3 ovarian = test system: OVCAR-3 ovarian
LOX IMVI melanoma = test system: LOX IMVI melanoma

## CNC(=O)/C(=C/c1ccc(OC)cc1)c1cc(OC)c(OC)c(OC)c1
RXF-631 renal
  TGI: > 100 µM
M19-MEL melanoma
  TGI: > 100 µM
ACHN renal
  TGI: > 100 µM
MALME-3M melanoma
  TGI: > 54.5 µM
DU-145 prostate
  TGI: > 43 µM
SW-620 colon
  TGI: > 100 µM
MCF7 breast
  TGI: > 51.4 µM
SF-268 CNS
  TGI: > 84.7 µM
SK-MEL-28 melanoma
  TGI: > 100 µM
U251 CNS
  TGI: 23.1 µM
HCT-116 colon
  TGI: > 72.4 µM
SF-539 CNS
  TGI: 3.58 µM
XF 498 CNS
  TGI: 65.8 µM
UACC-62 melanoma
  TGI: > 48.6 µM
LXFL 529 NSCLC
  TGI: > 100 µM
DMS 273 small cell lung
  TGI: > 100 µM
SNB-19 CNS
  TGI: 54.8 µM
HCT-15 colon
  TGI: > 100 µM
MDA-MB-435
  TGI: 2.42 µM
HS 578T breast
  TGI: 5.71 µM
NCI-H226 lung
  TGI: > 53.7 µM
HOP-62 NSCLC
  TGI: > 100 µM
SR leukemia
  TGI: > 31.1 µM
UACC-257 melanoma
  TGI: > 90 µM
BT-549 breast
  TGI: > 100 µM
UO-31 renal
  TGI: > 86 µM
COLO 205 colon
  TGI: 7.36 µM
A498 renal
  TGI: > 43.4 µM
SF-295 CNS
  TGI: 3.02 µM
RPMI-8226 leukemia
  TGI: > 100 µM
OVCAR-8 ovarian
  TGI: 55.3 µM
M14 melanoma
  TGI: > 34.6 µM
HL-60(TB) leukemia
  TGI: 8.01 µM
T-47D breast
  TGI: > 100 µM
HCC-2998 colon
  TGI: 17.7 µM
DLD-1 colon
  TGI: > 100 µM
HOP-92 NSCLC
  TGI: > 60.2 µM
OVCAR-4 ovarian
  TGI: 99.7 µM
SK-OV-3 ovarian
  TGI: 29 µM
A549 NSCLC
  TGI: > 100 µM
NCI-H23 lung
  TGI: 32.6 µM
SN12C renal
  TGI: 98.1 µM
CAKI-1 renal
  TGI: > 100 µM
NCI/ADR-RES ovarian
  TGI: > 100 µM
MDA-MB-231 breast
  TGI: > 77.9 µM
EKVX NSCLC
  TGI: > 100 µM
RXF 393 renal
  TGI: 11.8 µM
KM12 colon
  TGI: > 83.9 µM
KM20L2 colon
  TGI: 2.72 µM
SNB-75 CNS
  TGI: 4.4 µM
HT29 colon
  TGI: 17.5 µM
DMS 114 small cell lung
  TGI: > 21.5 µM
SK-MEL-2 melanoma
  TGI: > 100 µM
SK-MEL-5 melanoma
  TGI: > 36.6 µM
NCI-H460 lung
  TGI: 47.5 µM
MOLT-4 leukemia
  TGI: > 100 µM
OVCAR-5 ovarian
  TGI: > 93.3 µM
MDA-N
  TGI: 0.71 µM
NCI-H522 lung
  TGI: 4.39 µM
IGROV1 ovarian
  TGI: > 100 µM
786-0 renal
  TGI: > 100 µM
SNB-78 CNS
  TGI: > 100 µM
CCRF-CEM leukemia
  TGI: > 100 µM
TK-10 renal
  TGI: > 100 µM
HOP-18 NSCLC
  TGI: > 100 µM
PC-3 prostate
  TGI: > 100 µM
K-562 leukemia
  TGI: > 80.9 µM
OVCAR-3 ovarian
  TGI: 2.5 µM
LOX IMVI melanoma
  TGI: > 100 µM

## CN(C)CCC(=O)N1CCc2c([nH]c3ccccc23)C1c1cccnc1 (centres undefined)
RXF-631 renal
  TGI: > 100 µM
M19-MEL melanoma
  TGI: > 100 µM
ACHN renal
  TGI: > 100 µM
SW-620 colon
  TGI: > 100 µM
SF-268 CNS
  TGI: > 100 µM
SK-MEL-28 melanoma
  TGI: > 100 µM
U251 CNS
  TGI: > 100 µM
HCT-116 colon
  TGI: > 100 µM
SF-539 CNS
  TGI: > 100 µM
XF 498 CNS
  TGI: > 100 µM
UACC-62 melanoma
  TGI: > 100 µM
LXFL 529 NSCLC
  TGI: > 100 µM
DMS 273 small cell lung
  TGI: > 100 µM
SNB-19 CNS
  TGI: > 100 µM
HCT-15 colon
  TGI: > 100 µM
HOP-62 NSCLC
  TGI: > 100 µM
SR leukemia
  TGI: > 100 µM
UACC-257 melanoma
  TGI: > 100 µM
UO-31 renal
  TGI: > 100 µM
A498 renal
  TGI: > 100 µM
SF-295 CNS
  TGI: > 100 µM
RPMI-8226 leukemia
  TGI: > 100 µM
OVCAR-8 ovarian
  TGI: > 100 µM
M14 melanoma
  TGI: > 100 µM
HL-60(TB) leukemia
  TGI: > 100 µM
HCC-2998 colon
  TGI: > 100 µM
DLD-1 colon
  TGI: > 100 µM
HOP-92 NSCLC
  TGI: > 100 µM
OVCAR-4 ovarian
  TGI: > 100 µM
SK-OV-3 ovarian
  TGI: > 100 µM
A549 NSCLC
  TGI: > 100 µM
NCI-H23 lung
  TGI: > 100 µM
SN12C renal
  TGI: > 100 µM
CAKI-1 renal
  TGI: > 100 µM
EKVX NSCLC
  TGI: > 100 µM
RXF 393 renal
  TGI: 59.7 µM
KM12 colon
  TGI: > 100 µM
KM20L2 colon
  TGI: > 100 µM
SNB-75 CNS
  TGI: > 100 µM
HT29 colon
  TGI: > 100 µM
DMS 114 small cell lung
  TGI: > 100 µM
SK-MEL-5 melanoma
  TGI: > 100 µM
NCI-H460 lung
  TGI: > 100 µM
MOLT-4 leukemia
  TGI: > 100 µM
OVCAR-5 ovarian
  TGI: > 100 µM
NCI-H522 lung
  TGI: > 100 µM
IGROV1 ovarian
  TGI: > 100 µM
786-0 renal
  TGI: > 100 µM
SNB-78 CNS
  TGI: > 100 µM
CCRF-CEM leukemia
  TGI: > 100 µM
TK-10 renal
  TGI: > 100 µM
HOP-18 NSCLC
  TGI: > 100 µM
K-562 leukemia
  TGI: > 100 µM
OVCAR-3 ovarian
  TGI: > 100 µM
LOX IMVI melanoma
  TGI: > 100 µM

— PubChem BioAssay (NCI)
